Assay results from ChEMBL document CHEMBL3832071, “DailyMed|setid=56428c8f-8a4b-4cbf-93f1-28d8b5cfb51a | MYCOPHENOLATE MOFETIL- mycophenolate mofetil capsule|MYCOPHENOLATE MOFETIL- mycophenolate mofetil tablet, film coated | Cadila Healthcare Limited”.
Values joined by “and” are separate entries in the source; they are usually repeats but may differ in a detail not shown here. Equal values may be shown once.

Experiments:
Type in all cases: ADME, organism-based
Homo sapiens [1] = assay: Pharmacokinetic parameters for Mycophenolic acid following single oral administration of Mycophenolate Mofetil to subjects with different health status.; parameters: dose 1 g, route oral; conditions: in vivo, dosed compound id 90, dosed compound name MYCOPHENOLATE MOFETIL, gender male and female, regimen Single dose, tissue Plasma
Homo sapiens [2] = assay: Pharmacokinetic parameters for Mycophenolic acid following multiple administration of Mycophenolate Mofetil to hepatic, cardiac and renal transplant patients, at least 5 days after transplant.; parameters: dose 600 mg/m2, dose 1.5 g, dose 1 g, route oral, route iv; conditions: in vivo, 120 h, dosed compound id 90, dosed compound name MYCOPHENOLATE MOFETIL, gender male and female, regimen Twice daily, tissue Plasma
Homo sapiens [3] = assay: Apparent Volume of distribution (Vd) of […] following oral and intravenous (IV) administration of Mycophenolate Mofetil to 12 healthy volunteers; conditions: in vivo, dosed compound id 90, dosed compound name MYCOPHENOLATE MOFETIL, gender male and female, tissue Plasma

AUC(0-48) (Homo sapiens [1]): 29800 ng·h/mL
Total AUC (Homo sapiens [1]): 63900 ng·h/mL
AUC(0-12) (Homo sapiens [2]; sampling time1 4 hours): 54.1 µg·h/mL
AUC(0-12) (Homo sapiens [2]): 43.3 mcg.hr/mL [middle of 21 runs]
Tmax (Homo sapiens [2]; iv, dose 1 g): 1.58 h and 1.5 h
Tmax (Homo sapiens [2]; po, dose 1 g): 1.33 h and 1.31 h
Tmax (Homo sapiens [2]; po, dose 1.5 g): 1.15 hr [middle of 5 runs]
Vd (Homo sapiens [3]; iv): 3.6 L/kg
Vd (Homo sapiens [3]; po): 4 L/kg
Structure (SMILES): COc1c(C)c2c(c(O)c1C/C=C(\C)CCC(=O)O)C(=O)OC2 [MYCOPHENOLIC ACID]
Tmax (Homo sapiens [1]; dose 1 g, route oral): 0.8 h and 0.75 h and 0.63 h and 1 h and 0.85 h
AUC(0-96) (Homo sapiens [1]): 45000 ng·h/mL and 59900 ng·h/mL and 78600 ng·h/mL
Cmax (Homo sapiens [1]): 24500 ng/mL and 25300 ng/mL and 16300 ng/mL and 22400 ng/mL
